Results published in patent US20120021992A1, “METHODS FOR IMPROVING NEUROLOGICAL OUTCOME AFTER NEURAL INJURY AND NEURODEGENERATIVE DISEASE” (Henry Ford Health System, priority 2009, published 2012).

Key:
[1] = system: experimental autoimmune encephalomyelitis (EAE) mice; assay: Experimental autoimmune encephalomyelitis (EAE) model of multiple sclerosis; assay type: in vivo, mouse; details: 6 mg/kg IP, up to 30 days, versus control, p<0.01 (FIG. 9)
Protocol: (§1) Effectiveness of treatment with thymosin β4 was tested in stroke (middle cerebral artery occlusion (MCAo)) rats and in experimental autoimmune encephalomyelitis (EAE) mice (a well-established in vivo model for multiple sclerosis). Both the stroke rats and the EAE mice were treated with 6 mg/kg thymosin β4 intraperitoneally (IP) in a volume of 0.3 mL twenty-four hours after stroke or after the day of immunization in the EAE model and then every three days (6 mg/kg IP) for four additional doses. An equal volume of saline was administered (IP) to a group of both stroke rats and EAE mice as a control. Bromodeoxyuridine (BrdU; 100 mg/kg) was administered (IP) daily for seven days, initiated 24 hours after MCAo to label proliferating cells. Behavioral tests (adhesive removable test and NSS (Neurological Severity Score)) were performed immediately before treatment and at days 1, 7, 14, 21, 28, 35, 42, 49, and 56 days after MCAo and up to 30 days in the EAE mouse model. All rats were sacrificed 56 days after MCAo; EAE mice were sacrificed at 30 days.

[2] = system: stroke (middle cerebral artery occlusion (MCAo)) rats; assay: Embolic middle cerebral artery occlusion (MCAo) stroke model; assay type: in vivo, rat
Protocol: as §1

[3] = embolic stroke rats, 6 mg/kg IP, versus saline control

thymosin β4
functional neurological score [1]: robust improvement
number of myelinated axons ([2]; after MCAo, Bielschowsky and Luxol Fast Blue staining, p<0.05 (FIG. 4)): increased
cellular proliferation (BrdU expression, number of BrdU immunoreactive cells) ([2]; after MCAo, p<0.05 (FIG. 8)): also increased
number of oligodendrocyte progenitors and matured oligodendrocytes ([2]; after MCAo, p<0.05 (FIGS. 5-7)): increased
functional outcome by behavioral tests (adhesive removal test, NSS) ([2]; beginning at 21 days after stroke onset, 6 mg/kg IP, p<0.05 (FIG. 1-2)): Significant functional improvement
relative increase in BrdU expression in the striatum or myelinated region of the rat brain ([2]; embolic stroke rats, 6 mg/kg IP from 24 h after MCAo, then every three days for four additional doses, versus saline control): 42%
increase in CNP, a marker of mature oligodendrocytes [2, 3]: 11%
increase in NG-2, a marker of immature oligodendrocytes [2, 3]: 47%
